Test results reported in patent publication US20090076092A1, “METHOD FOR DISRUPTING REPRODUCTIVE PERFORMANCE OF ARTHROPODS” (priority 2006, published 2009).

Columns and labels:
[1] = tested on: Colorado potato beetle, (Leptinotarsa decemlineata Say); test: Test E: sub-lethal treatments on adult Colorado potato beetles; assay type: in vivo; details: for Total number of eggs: eggs collected daily for 20 days; for Mean number of viable larvae: larvae that developed to the pupal stage
Procedure: For evaluating the reproductive performance effects on Colorado potato beetle, (Leptinotarsa decemlineata Say), a colony of potato beetles was cultured in the laboratory on potato plants. The pupae were provided soil material to facilitate pupation. On emergence from the soil, the adult beetles were separated into different cages to avoid initial contact between the male and female beetles. Immediately afterwards, the sex of each adult beetle was determined, and each individual insect was placed in a Petri dish and fed with pieces of excised potato leaves, before being placed in a whole plant-containing test unit for treatment with a test compound solution. Each treatment consisted of twenty adult beetles of the same age (10 males and 10 females), and a pair consisting of a male and female was considered to be a replicate; thus there were 10 replicates per treatment.
Test solutions were prepared by diluting the test compound with acetone to provide the selected sub-lethal concentrations. Treatments included Compound 1 at 6.25 and 25 ppm as well as a control without test compound.
A 15 day-old potato plant with 2 to 3 leaves in a round peat pot was infested with 10 pairs of adult beetles, and the test solution was applied at a spray pressure of 310 kPa using a moving boom tunnel sprayer equipped with one Teejet nozzle, model 8003-EVS and calibrated at speed of 1 m/s and 345 kPa to deliver about 280 L/ha. A piece of filter paper was wrapped around the plant and covered the soil, and the spray nozzle was placed 40 cm above the top of potted plant unit so that the upper surface of the leaves was the only part of the plant contacted with the spray mixture.
After 24 h, one treated male and one treated female were transferred onto a covered container containing a potato plant to allow mating to occur. The test units were held in a growth chamber provided with 16 hours of light per day, 70% relative humidity and 20° C. Daily observations were made to record oviposition data. The eggs deposited by the females were collected daily and counted for 20 days. The collected eggs were then placed in a Petri dish lined with moistened paper filter to prevent dehydration, and maintained in an incubator at 20-24° C. with 16 hours of light per day, 70% relative humidity. The number of hatched eggs and the number of viable larvae that developed to the pupal stage were also recorded. The study was discontinued after the remaining unhatched eggs succumbed to fungal infections and high humidity.

[2] = tested on: green peach aphid (Myzus persicae Sulzer); test: Test B: nymph production by green peach aphid after 24 hours exposure on treated radish plants; assay type: in vivo; details: for Living (%) / On plant (%): 1 DAT; for Living (%): all aphids alive 24 h after treatment; for On plant (%): all aphids on the treated plant; for No. of nymphs (mean ± SE): per adult
Procedure: For evaluating reproductive performance effects on green peach aphid (Myzus persicae Sulzer), each test unit consisted of a radish plant grown in a 6 cm×6 cm square pot infested with a mixed population (nymphs and adults) of green peach aphids from a laboratory-reared culture. Each plant was infested with about 100 aphids. Test solutions were prepared and sprayed on the test plants (2 plants per treatment) as described for TEST A. Treatments included Compound 1 at 100 and 500 ppm, Compound 2 at 4 and 6 ppm, and a control without test compound.
Aphids were kept on the treated plants for 24 hours, and then only adult aphids staying on the treated plant were transferred to untreated radish plants grown singly in a 6 cm×6 cm square pots. One test unit or one replicate consisted of a single adult aphid on a radish plant in a pot. The number of nymphs in each replicate was counted 4 and 6 days after treatment. At the higher concentration of each test compound a total of 45 replicates were used, and at the lower concentration of each test compound a total of 30 replicates were used. In addition, prior to transferring aphids singly to the untreated radish plants one day after treatment (1 DAT), the total number of aphids living and those remaining on the treated plant were counted.
The results are listed in Table B. Square-root transformation was done on the number of nymphs produced per adult (female) aphid, and the data were analyzed using analysis of variance (ANOVA) and Fisher's Least Significant Difference (LSD) tests for separation of means.

cotton bollworm = test: Preliminary dose-response curve on cotton bollworm; assay type: in vivo, Helicoverpa armigera; details: cotton bollworm adults; preliminary dose-response curve at 10, 25, 50, 80 and 100 ppm
Source text: (§1) The sub-lethal concentrations or doses used in the various tests for the specific pest species and populations tested in the context of the present invention were estimated from multiple-rate, dose-finding tests to determine the control rates and activity break rates. […] Therefore, depending on the target pest species, either the LC50 or a suitable concentration between LC50 and LC20 was selected as the sub-lethal dose. The specific procedures used to select the respective doses are described in each Test.
(§2) Sub-lethal rates of Compound 1 on cotton bollworm were estimated based on a preliminary dose-response curve using rates of 10, 25, 50, 80 and 100 ppm. […] Three treatments consisted of test solutions containing Compound 1 at 10, 20 and 30 ppm as well as a control sprayed with water without test compound.

diamondback moth = test: Previous laboratory studies of diamondback moth mortality; assay type: in vivo; details: Plutella xylostella, read-out: mortality of the diamondback moth (LC20)
Source text: as §1
In addition, a control without test compound was included.

[3] = tested on: cotton bollworm (Helicoverpa armigera Hübner); test: Test H: eggs laid and hatched by treated cotton bollworm adults; assay type: in vivo; details: for No. of eggs hatched / No. of eggs laid: total; for No. of eggs hatched: counted daily for 10 DAT; for No. of eggs laid: counted daily for about 10 days
Source text: For evaluating the reproductive performance effects on cotton bollworm (Helicoverpa armigera Hübner), each test unit consisted of one pair of adult (female and male) Helicoverpa armigera moths. To obtain the adult moths, male and female pupae of approximately the same age (±1 day) were placed in separate containers until adults emerged. After emergence, adult moths of about the same age (±1 day) were selected for testing. Ten adult moths of the same sex were placed in a cage containing a potted cotton plant in a […] container covered with sleeve of fine-mesh polyester material. Then the cages were sprayed over the top with designated treatments of the test compounds using a CO2 sprayer fitted with a flat fan nozzle, calibrated to deliver about 200 mL (500 L/ha) of spray at a spray pressure of 207 kPa. The spray nozzle was placed 60 cm above the top of the cages.
as §2
The treated adult moths were transferred individually into a clean container made of a clear plastic cup covered with cloth and supplied with a cotton wick soaked in 10% sucrose solution as adult diet source. Each treatment used 10 adult females and 10 adult males (i.e. 10 replicates per treatment). One day after treatment, a pair of treated adults (male and female) were placed together in a cage made of a 300 mL clear plastic cup with screened cloth cover and containing a source of adult diet, allowing the moths to copulate. Each pair of moths was transferred to a new cup daily. The number of eggs laid was counted daily for about 10 days (which is the period during which female moths typically produce viable eggs) and totaled. To evaluate the viability of eggs, the copulation cages containing eggs were stored in a growth chamber at 24-27° C. with 14 hours of light per day and 70% relative humidity.

## CNC(=O)c1cc(Cl)cc(C)c1NC(=O)c1cc(Br)nn1-c1ncccc1Cl [Compound 1, 3-bromo-N-[4-chloro-2-methyl-6-[(methylamino)carbonyl]phenyl]-1-(3-chloro-2-pyridinyl)-1H-pyrazole-5-carboxamide]
[1]; 6.25 and 25 ppm
  fecundity and fertility data versus control: not significantly different from the control
[1]; 6.25 ppm
  Mean number of hatched eggs: 188
  Total number of eggs: 271
  Mean number of viable larvae: 95
[1]; 25 ppm
  Mean number of hatched eggs: 219
  Total number of eggs: 287
  Mean number of viable larvae: 117
[2]; 100 ppm
  Living (%): 99.9%
  On plant (%): 99.6%
[2]; 100 ppm, 4 DAT
  No. of nymphs (mean ± SE): 3.5 ± 0.3 b
[2]; 100 ppm, 6 DAT
  No. of nymphs (mean ± SE): 7.3 ± 0.4 a
[2]; 500 ppm
  Living (%): 99.6%
  On plant (%): 99.9%
[2]; 500 ppm, 4 DAT
  No. of nymphs (mean ± SE): 4.6 ± 0.3 a
[2]; 500 ppm, 6 DAT
  No. of nymphs (mean ± SE): 8.1 ± 0.5 a
Cotton bollworm
  LC20: 18 ppm
  LC50: 33 ppm
Diamondback moth
  mortality at 10 ppm: ~20%
[3]; 10, 20 and 30 ppm
  number of eggs hatched as compared to controls: progressively substantially decrease the number of eggs hatched
  number of eggs laid as compared to controls: did not consistently reduce the number of eggs laid
[3]; 10 ppm
  No. of eggs hatched: 977
  No. of eggs laid: 3412
[3]; 20 ppm
  No. of eggs hatched: 778
  No. of eggs laid: 1180
[3]; 30 ppm
  No. of eggs hatched: 84
  No. of eggs laid: 4920
